Reference: BindingDB's records for doi:10.7270/Q2DV1HH8 (Burnham Center For Chemical Genomics, 2012)
Where “and” joins values, the source holds several entries; their conditions need not be identical. Equal values may be shown once. Where a name gives a salt, the structure may show the parent alone. Numbered stars: 1 amine (or outer) side, 2 acyl side, 3 side chain; on linkers, the order of the positions; unused ones are H or OH. Bridge positions count the residues as written; N and C are the ends. Square brackets hold non-standard residues; d marks the D form. Peptide text beside a SMILES is read from it. ξ: configuration not given here. X1 = CC[C@H](CCC[C@@H](O)[C@@H](C)C(=O)O[C@H](C)[C@@H](C)C/C=C(C)\C(=C/C(=O)[*:1])OC)O[*:2]; NMeξIle = CC[C@H](C)C(NC)C(=O)O; NMeV = CN[C@H](C(=O)O)C(C)C; NMeS = CN[C@@H](CO)C(=O)O

Biological target: T1, Protein skinhead-1 (Caenorhabditis elegans, UniProt P34707)
T1 sequence (P34707 whole entry): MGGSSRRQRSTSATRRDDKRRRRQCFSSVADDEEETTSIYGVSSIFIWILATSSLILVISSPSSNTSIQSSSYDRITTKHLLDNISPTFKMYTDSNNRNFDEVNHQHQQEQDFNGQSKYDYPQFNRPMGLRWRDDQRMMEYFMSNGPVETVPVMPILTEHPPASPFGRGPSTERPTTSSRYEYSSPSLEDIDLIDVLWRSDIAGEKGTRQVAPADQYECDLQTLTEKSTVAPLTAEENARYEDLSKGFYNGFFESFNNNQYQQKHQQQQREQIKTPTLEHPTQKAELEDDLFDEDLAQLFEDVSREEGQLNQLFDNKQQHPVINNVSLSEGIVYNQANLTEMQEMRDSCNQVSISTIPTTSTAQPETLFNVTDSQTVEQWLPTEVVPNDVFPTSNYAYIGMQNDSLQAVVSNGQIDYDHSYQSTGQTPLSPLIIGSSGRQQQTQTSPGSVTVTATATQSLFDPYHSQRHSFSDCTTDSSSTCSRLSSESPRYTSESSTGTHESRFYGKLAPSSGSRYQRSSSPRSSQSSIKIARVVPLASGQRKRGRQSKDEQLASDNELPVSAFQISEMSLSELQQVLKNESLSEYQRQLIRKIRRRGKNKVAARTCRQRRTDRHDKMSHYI

[1] = inactive by the depositor's call

Row | IC50 [1] [µM] | SMILES | IC50
1 |  | O=C(CC=Nc1ccc(F)c(Cl)c1)c1ccco1 [(E)-3-(3-chloro-4-fluoroanilino)-1-(furan-2-yl)prop-2-en-1-one] | 16.7 µM
2 |  | O=C1C=CC(=O)c2c(O)c(N3CCN(CCOCCO)CC3)c(Br)c(O)c21 [6-bromo-5,8-dihydroxy-7-[4-[2-(2-hydroxyethoxy)ethyl]piperazin-1-yl]naphthalene-1,4-dione;hydrochloride] | 75.5 µM
3 |  | C=c1[nH]n(-c2ccccc2)c(=O)c1=CC=C1N(C)c2ccccc2C1(C)C [SMR000175131] | 87.3 µM and 14.4 µM
4 |  | Nc1ccc(/C=C2\C=Cc3ccccc32)cc1 | 45 µM
5 |  | O=C(CC=Nc1ccccc1F)c1cccs1 [(E)-3-[(2-fluorophenyl)amino]-1-thiophen-2-yl-prop-2-en-1-one] | 27.9 µM
6 |  | Cc1ccc(N=CCC(=O)c2cccs2)cc1 [3-[(4-methylphenyl)amino]-1-(2-thienyl)-2-propen-1-one] | 60.3 µM
7 |  | CCOC(=O)c1c(C)oc2c(F)c(F)c(F)c(F)c2c1=O [SMR000041624] | 45.5 µM
8 |  | Cc1ccc2nc(-c3cccnc3)c(NC3CCCCC3)n2c1 | 23.5 µM
9 |  | Cc1cc(C)c2ccc3c(C)c(C)[nH]c3c2n1 [MLS000729064] | 41.1 µM
10 |  | O=C(/N=C1\[N-]c2ccc(Br)c[n+]2Cc2ccccc21)c1ccc([N+](=O)[O-])cc1[N+](=O)[O-] [N-(2-bromanyl-11H-pyrido[1,2-b][2,4]benzodiazepin-6-ylidene)-2,4-dinitro-benzamide] | 2.78 µM
11 |  | O=C(C=Cc1ccc(Br)cc1)c1ccc(N=C2NCCCS2)cc1 [MLS000391412] | 18.3 µM
12 |  | CC[C@@H]1CCC[C@@H](O)[C@@H](C)C(=O)O[C@H](C)[C@@H](C)C/C=C(C)\C(OC)=C/C(=O)N(C)C([C@@H](C)CC)C(=O)N(C)[C@@H](C(C)C)C(=O)N(C)[C@@H](COC)C(=O)N2CCC[C@H]2C(=O)N(C)[C@@H](C(C)C)C(=O)N2CCC[C@H]2C(=O)O1 (stereo partly specified) [MLS003235796] ([NMeξIle][NMeV][NMeS](Me)P[NMeV]P; linker N-C via X1) | 82.4 µM
13 |  | O=C(c1ccco1)C(C=Nc1ccc(Br)cc1)C(=O)C(F)(F)F (stereo unspecified) [2-{[(4-bromophenyl)amino]methylene}-4,4,4-trifluoro-1-(2-furyl)-1,3-butanedione] | 21 µM
14 |  | O=C(CC=Nc1ccc(Br)cc1F)c1ccco1 [SMR000293180] | 2.19 µM
15 |  | O=C(CC=Nc1ccc(F)cc1F)c1cccs1 [(E)-3-[[2,4-bis(fluoranyl)phenyl]amino]-1-thiophen-2-yl-prop-2-en-1-one] | 5.04 µM
16 |  | O=C(CC=Nc1ccc(F)cc1F)c1ccco1 [(E)-3-(2,4-difluoroanilino)-1-(2-furanyl)-2-propen-1-one] | 22.7 µM

Row | IC50 [1] [µM] | SMILES | IC50
17 |  | O=C(CC=Nc1ccc(F)c(F)c1)c1cccs1 [3-[(3,4-difluorophenyl)amino]-1-(2-thienyl)-2-propen-1-one] | 11.4 µM
18 |  | COC(=O)c1cc(=O)nc2sccn12 | 21.9 µM
19 | 61.9 | Cn1ccs/c1=N/C(=O)c1ccc(OC(F)(F)F)cc1 [SMR000589314] | 
20 |  | O=C1/C(=C/c2ccccn2)CCc2ccccc21 | 78.5 µM
21 |  | O=C(CC=Nc1ccccn1)c1ccccc1 [(Z)-1-phenyl-3-(pyridin-2-ylamino)prop-2-en-1-one] | 53.7 µM
22 |  | O=C(CC=Nc1cccc(F)c1)c1cccs1 | 46.7 µM
23 |  | CC1CCCCN1Cc1c(O)ccc2c(=O)c(-c3nc4ccccc4s3)c(N)oc12 (stereo unspecified) [SMR000218869] | 6.82 µM
24 |  | O=C(CC=Nc1ccc(Br)cc1)c1cccnc1 [SMR000225438] | 68.9 µM
25 |  | CN(C)c1ccc(N=CCC(=O)c2ccco2)cc1 | 70.5 µM
26 |  | Cc1ccc(N=CC(C(=O)c2ccco2)C(=O)C(F)(F)F)cc1Cl (stereo unspecified) [2-{[(3-chloro-4-methylphenyl)amino]methylene}-4,4,4-trifluoro-1-(2-furyl)-1,3-butanedione] | 14.3 µM
27 |  | Cc1ccc(Cl)c(N=CCC(=O)c2ccccc2)c1 [(E)-3-[(2-chloranyl-5-methyl-phenyl)amino]-1-phenyl-prop-2-en-1-one] | 68.8 µM
28 |  | COC(=O)[C@]12OC[C@]34[C@H]([C@@H](O)[C@@H]1O)[C@@]1(C)CC(=O)C(=O)C(C)[C@@H]1C[C@H]3OC(=O)[C@H](OC(=O)/C=C(\C)C(C)C)[C@@H]24 (stereo partly drawn) [10,15,16-trihydroxy-9,13-dimethyl-17-methyloxycarbonyl-4,11-dioxo-(1R,2S,3R,6R,8R,13S,14R,15R,16S,17R)-5,18-dioxapentacyclo[12.5.0.01,6.02,17.08,13]nonadec-9-en-3-yl 3,4-dimethyl-(E)-2-pentenoate] | 75.3 µM
29 | 79.9 | Cc1cccc(C=CC(=O)c2ccc(N=C3NCCCS3)cc2)c1 [(E)-1-[4-(5,6-dihydro-4H-1,3-thiazin-2-ylamino)phenyl]-3-(3-methylphenyl)prop-2-en-1-one] | 
30 |  | O=C1N[C@@H]2C(=C[C@H](O)[C@@H](O)[C@H]2O)c2cc3c(c(O)c21)OCO3 [(2S,3R,4S,4aR)-2,3,4,7-Tetrahydroxy-3,4,4a,5-tetrahydro-2H-[1,3]dioxolo[4,5-j]phenanthridin-6-one] | 51.4 µM
31 |  | O=C1C2=CCC=CC2Oc2ccc(Br)cc21 (stereo unspecified) [SMR000327218] | > 100 µM
